Experimental findings from patent US11471534B2, “Chitosan-pluronic complex and nano-carrier comprising same” (KOREA INSTITUTE OF CERAMIC ENGINEERING AND TECHNOLOGY, priority 2017, dated 2022) are described below.

The nature of the series: Distribution of model drug (Nile red) in skin, fluorescence microscope on cryo-sections. The class given is in vitro ADME, human. As to conditions: after the skin penetration experiment, 20 μm cryo-sections. The protocol:
After completing a skin penetration experiment of the drugs, skins were fixed in a […] neutral formalin solution for 12 hours or more to confirm how the drugs were distributed in the skins. After mixing the fixed skins with an OCT compound, allowing OCT compound-mixed skins to be frozen in liquid nitrogen of −20° C. or less, and cutting the frozen skins to a thickness of 20 μm through a cryo-section device (−25° C.), sampling was made by attaching the cut skins to glass. After washing samples with deionized water and observing distribution statuses of a model drug (Nile red) in the skins with a fluorescence microscope, observation results are illustrated in FIG. 10.

Take `CCN(CC)c1ccc2nc3c4ccccc4c(=O)cc-3oc2c1` [Nile red]: the “distribution of model drug (Nile red) in the skin” value is given as “collected in stratum corneum”.
